# Measured values taken from patent US9340532B2, “Methods and compositions for inhibiting CNKSR1” (PHUSIS THERAPEUTICS, INC., priority 2012, dated 2016).
# Several values for one entry are separate records, joined by “and”; a condition that tells them apart may be missing. Equal entries are not always repeated. Where two headings read alike, the source gives them in different places.
# Legend:
# PH-domain of AKT = target: T1, PH-domain of AKT (Homo sapiens, UniProt P31749); test: SPR binding to expressed PH-domain of AKT
# T1 construct: made in house
# T1 sequence (P31749 5-108 limits assumed): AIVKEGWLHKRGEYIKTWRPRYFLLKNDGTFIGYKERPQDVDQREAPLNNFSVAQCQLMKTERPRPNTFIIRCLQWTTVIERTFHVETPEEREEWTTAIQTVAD
# Experimental: (§1) In embodiments, the binding of identified compounds to the crystal structures of other PH-domain signaling proteins, AKT, PDPK1, Btk, and Tiam1 can be predicted. In such embodiments, the Kds exceed about 100 μM. In other embodiments, SPR can measure the binding of identified compounds to the expressed PH-domains of AKT, PDPK1 and Tiam1. […] Thus, the identified compounds appear have, at least, about 50 to about 100 fold selectivity for CNKSR1 compared to the other PH-domains studied.
# (§2) A commercially available docking package, GOLD (GOLD [3.2], CCDC: Cambridge, UK, 2007) was used to evaluate the docking of compounds 1-7 into the binding pocket, see e.g. Table 5. Other docking was performed using modeling algorithms with state-of-the-art commercial drug discovery software (Schrodinger suite). GLIDE was chosen as the docking algorithm used to select and optimize compounds, providing a GlideScore as a rough estimate of binding affinity that was used to rank and select the best compounds. Additionally, ligand-based approaches provided an alternative to structure based drug discovery. Ligand-based virtual screening methodologies can take into account shape and electrostatics (like ROCS) and the pharmacophoric features (acceptor, donor, hydrophobic, aromatic, etc.) of its functional groups. […]
# PH-domain of PDPK1 = target: T2, PH-domain of PDPK1 (Homo sapiens, UniProt O15530); test: SPR binding to expressed PH-domain of PDPK1
# T2 construct: made in house
# T2 sequence (O15530 459-550 limits assumed): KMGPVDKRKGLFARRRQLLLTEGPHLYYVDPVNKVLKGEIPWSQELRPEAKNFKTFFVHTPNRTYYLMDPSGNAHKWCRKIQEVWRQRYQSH
# Experimental: as §1, §2
# PH-domain of Tiam1 = test: SPR binding to expressed PH-domain of Tiam1
# Experimental: as §1, §2
# [1] = system: mut-KRAS NSCLC cell lines; test: Screening against NSCLC cell line panel, mut-KRAS lines; type: cell-based; settings: for inhibition of mut-KRAS cell growth (in words): FIG. 3 and FIG. 5
# Experimental: (§3) The isogenic KRAS lines harboring G12D, G12C, and G12V were obtained from Horizon Discovery labs on a one year lease. These cells were cultured in McCoys media with 10% FBS to 80% confluency. Cells were then released from flasks via trypsinization and plated into 96-well plates at an initial density range of 2000 cells per well. Cells were allowed 24 hours to attach, and then the agents were added to the culture media at a range of concentrations from 0-100 μM. Cells were incubated for 72 hours with the drugs, and then viability was assessed using an MTS viability assay. Cells were exposed to MTS reagent (Promega) dissolved in PBS (Hyclone) at a concentration of 200 μL reagent/mL media for 2 hours. Absorbance was then read at 490 nm, and viability was expressed as a percentage normalized between the negative control (no cells plated) and the condition of cells with no drug added (100% viability) normalized as the upper limit of viability.
# (§4) Our panel of 30 cell lines and an extensive characterization were obtained from Dr. John Minna (UTSW). All cell lines were cultured in RPMI 1640 with 10% FBS. Cells were treated with concentrations of agents at concentrations 0.01 to 50 μM and evaluated as described above. IC50's were determined using Excelfit.
# CNK1 PH-domain (CNKSR1) = target: T3, CNK1 PH-domain (CNKSR1) (Homo sapiens, UniProt Q969H4); test: SPR binding assay (Biacore T100), CNK1 PH-domain; settings: for Surface Plasmon Resonance CNKSR1 binding (RU max) / Surface Plasmon Resonance CNKSR1 stability (RU max post-injection): date 12 09 13
# T3 construct: The PH-domain His-fusion proteins (CNK1 and AKT1) were expressed and immobilized on a NTA chip; made in house
# T3 sequence (Q969H4 403-502 limits assumed): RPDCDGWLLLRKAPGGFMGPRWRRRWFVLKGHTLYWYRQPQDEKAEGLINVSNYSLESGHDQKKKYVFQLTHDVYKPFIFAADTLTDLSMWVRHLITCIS
# Experimental: (§5) All interaction analyses were done with a Biacore T100 Control Software v3.2, and BIAevaluation v4.1 analysis software (Biacore). The PH-domain His-fusion proteins (CNK1 and AKT1) were expressed and immobilized on a NTA chip to a level of 10,000 response units or less. Small molecule analytes at concentrations ranging from 50 μM to 0.010 μM were injected at a high flow rate (30 μL/min) DMSO concentrations in all samples and running buffer were 1-5% (v/v).
# (§6) Other docking was performed using modeling algorithms with state-of-the-art commercial drug discovery software (Schrodinger suite). […] Additionally, ligand-based approaches provided an alternative to structure based drug discovery. Ligand-based virtual screening methodologies can take into account shape and electrostatics (like ROCS) and the pharmacophoric features (acceptor, donor, hydrophobic, aromatic, etc.) of its functional groups. […] SPR interaction analyses of all other compounds was undertaken using a Biacore T100 with Control and Evaluation software kit.
# AKT1 PH-domain = target: T4, AKT1 PH-domain (Homo sapiens, UniProt P31749); test: SPR binding assay (Biacore T100), AKT1 PH-domain; settings: read-out: AKT KD
# T4 construct: The PH-domain His-fusion proteins (CNK1 and AKT1) were expressed and immobilized on a NTA chip; made in house
# T4 sequence (P31749 5-108 limits assumed): as the sequence (P31749 5-108 limits assumed) above
# Experimental: as §5
# (§7) A commercially available docking package, GOLD (GOLD [3.2], CCDC: Cambridge, UK, 2007) was used to evaluate the docking of compounds 1-7 into the binding pocket, see e.g. Table 5. Other docking was performed using modeling algorithms with state-of-the-art commercial drug discovery software (Schrodinger suite). GLIDE was chosen as the docking algorithm used to select and optimize compounds, providing a GlideScore as a rough estimate of binding affinity that was used to rank and select the best compounds. Additionally, ligand-based approaches provided an alternative to structure based drug discovery. Ligand-based virtual screening methodologies can take into account shape and electrostatics (like ROCS) and the pharmacophoric features (acceptor, donor, hydrophobic, aromatic, etc.) of its functional groups. Inositol tetraphosphate (IP4) binding to the PH-domain of CNKSR1 provided a good starting point for shape screening. Both structure-based and ligand-based approaches were used to find novel compounds (Table 7) and to refine and improve lead compounds (Tables 8, and 9). SPR interaction analyses for Compounds 1 through 7 were performed with a Biacore 2000, using Biacore2000 Control Software v3.2 and BIAevaluation v4.1 analysis software (Biacore) as described in Mol Cancer Ther 7:2621 (2008). SPR interaction analyses of all other compounds was undertaken using a Biacore T100 with Control and Evaluation software kit.
# wt-KRAS NSCLC cell lines = test: Screening against NSCLC cell line panel, wt-KRAS lines; type: cell-based; settings: for IC50: Table 6, mean of 3 wt-KRAS lines, read-out: NSCL cell line cytotoxicity IC50 wt-KRAS
# Experimental: as §3, §4
# [2] = Pharmacokinetics after oral administration; type: in vivo, mice; settings: compound 8 administered orally to mice at the same dose (200 mg/kg); 200 mg/kg
# Experimental: In order to understand better the reasons for the antitumor activity of compound #7 pharmacokinetic studies were conducted. […] Following oral administration in vivo plasma concentrations of the parent compound were low, about 3 μg/ml (7 μM) whereas the de-esterified acid form (compound 8) was present at high peak concentrations of around 50 μg/ml (128 μM). When compound 8 was administered orally to mice at the same dose even higher peak concentrations of 90 μg/ml (230 μM) were achieved.
# [3] = Mouse pharmacokinetics (iv); type: in vivo; settings: for clearance: in vivo
# [4] = system: A549 (KRAS mutant cell line); test: Proliferation Assay A549; type: cell-based; settings: Homo sapiens, N = 2 experiments
# Experimental: as §3, §4
# [5] = system: H1373 (KRAS mutant cell line); test: Proliferation Assay H1373; type: cell-based; settings: Homo sapiens, NCI-H1373, N = 2 experiments
# Experimental: as §3, §4
# [6] = system: H1975 (KRAS wildtype cell line); test: Proliferation Assay H1975; type: cell-based; settings: Homo sapiens, NCI-H1975, n = 1
# Experimental: as §3, §4
# [7] = system: H226 (KRAS wildtype cell line); test: Proliferation Assay H226; type: cell-based; settings: Homo sapiens, NCI-H226, n = 1
# Experimental: as §3, §4
# PLE = test: SPR binding, PLE; settings: Table 8
# Experimental: as §7, with “SPR interaction analyses of all other compounds was undertaken using a Biacore T100 with Control and Evaluation software kit.” left out
# PH-domain of CNKSR1 = target: T5, PH-domain of CNKSR1 (Homo sapiens, UniProt Q969H4); test: SPR binding (Biacore 2000) to CNKSR1 PH-domain, initial hits; settings: Table 5
# T5 sequence (Q969H4 403-502 limits assumed): T3 sequence (Q969H4 403-502 limits assumed)
# Experimental: In embodiments, a homology model for the PH-domain of CNSKR1 based on known PH-domain crystal structures can be developed. The docking program PHuDock® can be used to identify potential inhibitors of CNKSR1. […] The binding of the compounds to the expressed PH-domain of CNKSR1 (KDobs) can be measured by surface plasmon resonance (SPR) spectroscopy.
# as §6
# [8] = Table 6, mean of 3 mut-KRAS lines, read-out: NSCL cell line cytotoxicity IC50 mut-KRAS
SMILES,"Kd (CNK1 PH-domain (CNKSR1); Table 6, read-out: CNKS KD) [µM]",t1/2β [3] [h],clearance [3] [mL/min/kg],IC50 [4] [µM],IC50 [5] [µM],IC50 [6] [µM],IC50 [7] [µM],"IC50 [1, 8] [µM]",IC50 (wt-KRAS NSCLC cell lines) [µM],further results
CCOC(=O)Cc1nn(SCC(=O)O)c(=O)c2ccccc12 [#4],–,–,–,–,–,–,–,–,–,SPR binding to PH-domain of AKT (PH-domain of AKT): No measurable binding; SPR binding to PH-domain of PDPK1 (PH-domain of PDPK1): No measurable binding; SPR binding to PH-domain of Tiam1 (PH-domain of Tiam1): No measurable binding; inhibition of mut-KRAS cell growth (in words) [1]: low micromolar inhibition
"CCOC(=O)/C=C/c1cc(NS(=O)(=O)c2cccs2)c2c(c1O)OCO2 [Compound 88, (E)-ethyl 3-(4-hydroxy-7-(thiophene-2-sulfonamido)benzo[d][1,3]dioxol-5-yl)acrylate]",–,–,–,> 100,> 100,> 100,> 100,–,–,"Kd (CNK1 PH-domain (CNKSR1); Table 8, read-out: CNK KD): 0.186 µM; Surface Plasmon Resonance CNKSR1 binding (RU max) (CNK1 PH-domain (CNKSR1)): 0.817 RU * 100/Da; Surface Plasmon Resonance CNKSR1 stability (RU max post-injection) (CNK1 PH-domain (CNKSR1)): 1.138 RU * 100/Da; Kd (AKT1 PH-domain; Table 8): 75.2 µM; Kd (PLE): 261 µM"
"CCOC(=O)/C=C/c1c(O)c(OC)cc(NS(=O)(=O)c2cccs2)c1SC [Compound 103, ethyl (2E)-3-[2-hydroxy-3-methoxy-6-(methylsulfanyl)-5-(thiopliene-2-sulfonamido)phenyl]prop-2-enoate]",–,–,–,75,> 100,> 100,> 100,–,–,"Kd (CNK1 PH-domain (CNKSR1); Table 8, read-out: CNK KD): 0.157 µM; Surface Plasmon Resonance CNKSR1 binding (RU max) (CNK1 PH-domain (CNKSR1)): 2.635 RU * 100/Da; Surface Plasmon Resonance CNKSR1 stability (RU max post-injection) (CNK1 PH-domain (CNKSR1)): 3.148 RU * 100/Da; Kd (AKT1 PH-domain; Table 8): 330 µM; Kd (PLE): 300 µM"
CC(=O)Nc1cccc(-n2nnc(SCC(=O)c3cc(-c4ccccc4)no3)n2)c1 [Compound 120],–,–,–,–,–,–,–,–,–,"Kd (PH-domain of CNKSR1): 3.3 ± 1.2 µM; IC50 ([1]; Table 5, read-out: Mean IC50 mut-KRAS): 47 ± 5.2 µM"

# Continued, in another order:
"Kd (CNK1 PH-domain (CNKSR1); Table 6, read-out: CNKS KD) [µM]",t1/2β [3] [h],clearance [3] [mL/min/kg],IC50 [4] [µM],IC50 [5] [µM],IC50 [6] [µM],IC50 [7] [µM],SMILES,"IC50 [1, 8] [µM]",IC50 (wt-KRAS NSCLC cell lines) [µM],further results
> 100,1.2,4740,–,–,–,–,Cc1ccc(-c2csc(Cn3nc(CC(=O)O)c4ccccc4c3=O)n2)cc1 [Compound 8],> 100,> 100,Kd (AKT1 PH-domain; Table 6): 51.6 µM; activity in cells in culture ([1]; FIG. 5): inactive; peak plasma concentration [2]: 90 μg/ml and 230 μM
0.026,4.33,133,42,> 100,100,> 100,Cc1ccc(-c2csc(Cn3nc(CC4OCCCO4)c4ccccc4c3=O)n2)cc1 [Compound 9],25,55,Kd (AKT1 PH-domain; Table 6): 66.3 µM
4.12,4.08,119,–,–,–,–,Cc1ccc(-c2csc(Cn3nc(Cc4nccs4)c4ccccc4c3=O)n2)cc1 [Compound 10],34,46,inhibition of mut-KRAS cell growth (in words) [1]: inhibited the growth; selectivity for mut-KRAS cells compared to wt-KRAS cells ([1]; NSCLC cell lines): approximately two fold; inhibition of wt-KRAS cell growth (in words) (wt-KRAS NSCLC cell lines; FIG. 5): also inhibited
